According to patent US6313173A, “Glyoxylic acid amides” (Bayer Aktiengesellschaft, priority 1996, dated 2001):

Experiments:
physchem = settings: hplc
[1] = hplc
Phytophthora infestans = format: in vivo; settings: tomato, protective; application rate of 50 g/ha; 3 days after the inoculation
Plasmopara viticola = assay: Plasmopara Test (Grapevine)/protective; format: in vivo; settings: protective, application rate of 50 g/ha, 6 days after the inoculation
[2] = E/Z mixture, second of two values (Z position)

Work on `CCON=C(C(=O)NC(C)Cc1ccc(OCC)c(OC)c1)c1ccc(Br)cc1` (stereo not shown) [Example 9] yielded a chromatographic logP (logP determined by HPLC; E/Z mixture, (E position)) of 3.69 and a chromatographic logP (logP determined by HPLC; [2]) of 4.01.

In the case of `CCON=C(C(=O)NC(C)Cc1ccc(OCC)c(OC)c1)c1ccc2c(c1)CCCC2` (stereo not shown) [Example 12], the chromatographic logP (logP determined by HPLC; single value (single isomer)) is reported as 4.41.

Work on `CCOc1ccc(CC(C)NC(=O)C(=NOC)c2ccc(Br)cc2)cc1OC` (stereo not shown) [Example 2] yielded a chromatographic logP (physchem) of 3.34 and a logP [1] of 3.64.

In the case of `CCOc1ccc(CC(C)NC(=O)/C(=N/OC)c2ccc(Br)cc2)cc1OC` (stereo not shown) [Example 6], the chromatographic logP (physchem) is reported as 3.34, the efficacy (Phytophthora infestans) is reported as ≥ 86% and the efficacy (Plasmopara viticola) is reported as ≥ 96%.

For `CCON=C(C(=O)NC(C)Cc1ccc(OCC)c(OC)c1)c1ccc2c(c1)CCC2` (stereo not shown) [Example 16], the chromatographic logP (logP determined by HPLC; E/Z mixture, (E position)) was 3.79 and the chromatographic logP (logP determined by HPLC; [2]) was 4.1.

`CCO/N=C(\C(=O)NC(C)Cc1ccc(OCC)c(OC)c1)c1ccc2c(c1)CCC2` (stereo not shown) [Example 17] gave a chromatographic logP (logP determined by HPLC; single value (single isomer)) of 4.1.

For `CCO/N=C(/C(=O)NC(C)Cc1ccc(OCC)c(OC)c1)c1ccc(Br)cc1` (stereo not shown) [Example 20], the chromatographic logP (logP determined by HPLC; single value (single isomer)) was 3.69.

In the case of `CCOc1ccc(CC(C)NC(=O)C(=NOC)c2ccc3c(c2)CCCC3)cc1OC` (stereo not shown) [Example 1, N-[2-(4-ethoxy-3-methoxyphenyl)-1-methylethyl]-2-methoxyimino-2-(5,6,7,8-tetrahydronaphthalin-2-yl)-acetic acid amide], the chromatographic logP (logP determined by HPLC; E/Z mixture, (E position)) is reported as 3.72, the chromatographic logP (logP determined by HPLC; [2]) is reported as 4.04 and the efficacy (Phytophthora infestans) is reported as ≥ 86%.

With `CCON=C(C(=O)NC(C)Cc1ccc(OCC)c(OC)c1)c1ccc(C)cc1` (stereo not shown) [Example 14] the chromatographic logP (logP determined by HPLC; E/Z mixture, (E position)) was 3.38, the chromatographic logP (logP determined by HPLC; [2]) was 3.71 and the efficacy (Phytophthora infestans) was ≥ 86%. For the same molecule, the efficacy (Plasmopara viticola) was ≥ 96%.

Molecule `CCOc1ccc(CC(C)NC(=O)C(=NOC)c2ccc3c(c2)CCC3)cc1OC` (stereo not shown) [Example 3] has a chromatographic logP (logP determined by HPLC; E/Z mixture, (E position)) of 3.13 and a chromatographic logP (logP determined by HPLC; [2]) of 3.44.

With `CCON=C(C(=O)NC(C)Cc1ccc(OCC)c(OC)c1)c1ccc(Cl)cc1` (stereo not shown) [Example 11] the chromatographic logP (logP determined by HPLC; E/Z mixture, (E position)) was 3.59, the chromatographic logP (logP determined by HPLC; [2]) was 3.91 and the efficacy (Phytophthora infestans) was ≥ 86%.

Work on `CCO/N=C(/C(=O)NC(C)Cc1ccc(OCC)c(OC)c1)c1ccc2c(c1)CCC2` (stereo not shown) [Example 18] yielded a chromatographic logP (logP determined by HPLC; single value (single isomer)) of 3.79.

In the case of `CCOc1ccc(CC(C)NC(=O)/C(=N\OC)c2ccc(Br)cc2)cc1OC` (stereo not shown) [Example 5], the chromatographic logP (physchem) is reported as 3.64.

`CCOc1ccc(CC(C)NC(=O)C(=NOC)c2ccc(C)cc2)cc1OC` (stereo not shown) [Example 10] gave a chromatographic logP (physchem) of 3.04 and a logP [1] of 3.34.

With `CCON=C(C(=O)NC(C)Cc1ccc(OCC)c(OC)c1)c1ccc(CC)cc1` (stereo not shown) [Example 15] the chromatographic logP (logP determined by HPLC; E/Z mixture, (E position)) was 3.73 and the chromatographic logP (logP determined by HPLC; [2]) was 4.05.

For `CCOc1ccc(CC(C)NC(=O)/C(=N/OC)c2ccc(Cl)cc2)cc1OC` (stereo not shown) [Example 7], the chromatographic logP (physchem) was 3.26, the efficacy (Phytophthora infestans) was ≥ 86% and the efficacy (Plasmopara viticola) was ≥ 96%.

`CCO/N=C(\C(=O)NC(C)Cc1ccc(OCC)c(OC)c1)c1ccc(CC)cc1` (stereo not shown) [Example 19] gave a chromatographic logP (logP determined by HPLC; single value (single isomer)) of 4.05.

In the case of `CCO/N=C(/C(=O)NC(C)Cc1ccc(OCC)c(OC)c1)c1ccc2c(c1)CCCC2` (stereo not shown) [Example 13], the chromatographic logP (logP determined by HPLC; single value (single isomer)) is reported as 4.07 and the efficacy (Phytophthora infestans) is reported as ≥ 86%.

Work on `CCOc1ccc(CC(C)NC(=O)C(=NOC)c2ccc(Cl)cc2)cc1OC` (stereo not shown) [Example 4] yielded a chromatographic logP (physchem) of 3.26 and a logP [1] of 3.56.

`CCON=C(C(=O)NC(C)Cc1ccc(OCC)c(OC)c1)c1ccc2c(c1)CCCC2` (stereo not shown) [Example 8] showed a chromatographic logP (logP determined by HPLC; E/Z mixture, (E position)) of 4.07 and a chromatographic logP (logP determined by HPLC; [2]) of 4.41.
